{
  "source": "patent US20050152835A1",
  "about": "“Technetium-99M glucarate methods of use for monitoring tissues” (priority 2003, published 2005)",
  "key": {"MCF7 breast tumors": {"tested_on": "MCF7 breast tumors", "assay": "FASTSPECT dynamic imaging of MCF7 tumor xenografts (MCF7/S and MCF7/D40 together)", "format": "in vivo, SCID mice", "description": "(§1) Tumor cell lines used. MCF7/S: Cells are parental, drug (doxorubicin) sensitive, breast carcinoma cells. MCF7/D40: Cells were generated in vitro by successive culturing parental MCF7 cells in slowly increasing concentrations of doxorubicin with a total selection time of 31 months. Twenty-eight SCID mice were studied. MCF7/S or MCF7/D40 tumors were grown for 10-14 days after subcutaneous injection of 1×10^6 cells into the right thigh. Groups of mice with the xenografted tumors included: (MCF7/S group: MIBI: n=9; GLA: n=8) and (MCF7/D40 group: MIBI: n=6; GLA: n=5).\n(§2) The dynamic imaging system SPECT consisted of 24 small modular gamma cameras. Each modular camera consists of a 10 cm×10 cm NaI(Tl) scintillation crystal, 4 square (5 cm×5 cm) Hamamatsu photomultiplier tubes. The system included a cylindrical aperture with twenty four 1-mm diameter pinholes drilled in the aperture. A point source in the center of the field of view is projected simultaneously to the center of each camera. Total magnification is 3.5 in a 3.0 cm×3.2 cm×3.2 cm field of view. The spatial resolution of the system is about 1.0 mm, with a sensitivity of 13.3 cps/μCi.\n(§3) ^99mTc-GLA or ^99mTc-MIBI (5-8 mCi, 185-296 MBq) was injected via a jugular vein catheter. Dynamic images were acquired for 2 hours. Twenty-four projections were obtained, one from each camera. Each scintillation event within the camera's NaI crystal was registered as the digitized outputs from the camera's four photomultiplier tubes. The four photomultiplier outputs were compared to a 20-bit look-up table derived from a calibration procedure that involved moving a collimated source across the camera face.\n(§4) Tumor image reconstruction was performed using 100 iterations of the maximum-likelihood expectation-maximization (ML-EM) algorithm. Using SlicerDicer software, three-dimensional images were computed to provide images in a 33×49×49 voxels format, and generate tomographic transaxial, coronal and sagittal slices with one-pixel thickness (1.0 mm). Regions of interest (ROI) over the tumors were created and applied to the dynamic images for determining time-activity curves. The percent washout rate relative to the peak uptake of the tumors were calculated."}, "infarcted hearts": {"tested_on": "infarcted hearts", "conditions": "isoproterenol-induced myocardial infarction; cited from earlier work"}, "[1]": {"tested_on": "ischemic-reperfused myocardium", "assay": "FASTSPECT hot spot imaging and washout kinetics in ischemic-reperfused rat heart models (IR30, IR90)", "format": "in vivo", "set-up": "half-time value (t1/2) of washout, late phase / half-time value (t1/2) of washout, early phase: unit not given here", "conditions": "for GLA hot spot size (% LV): 120-min image, mean ± SEM; for GLA hot spot size (% IAR): normalized to ischemic area at risk; for averaged ratio of whole-heart hot spot activity to normal myocardial activity: two hours after injection", "description": "Ischemic-Reperfused Rat Heart Models were prepare from Male Sprague-Dawley rats (weight, 250-300 g) that were anesthetized with 1.0%-1.5% isoflurane. The model of myocardial ischemia-reperfusion was developed using know techniques. The rat was prepared by first removing the fur from the chest and neck region with electric clippers. The jugular vein was catheterized through a surgical procedure. An incision was made over the jugular furrow, and blunt and sharp dissection was used to isolate the jugular vein. A PE-10 catheter was advanced through a nick made by micro scissors and then secured by ligatures. After tracheotomy, the rats were ventilated using a volume-controlled Inspira Advanced Safety Ventilator (Harvard Apparatus, Inc.) with a mixture of oxygen and room air. Using each animal's weight, the tidal volume (1.2 mL/100 g) and respiration rate (65-70 breaths/min) were automatically calculated in Safe Range settings (Harvard Apparatus). With a left intercostals thoracotomy incision, the chest was opened at the fourth or fifth intercostal space. The pericardium was opened and the heart was exposed. A small, curved, tapered needle threaded 5-0 silk through the tissue between the pulmonary cone and the left auricular appendage. A ligature was placed around the LCA with a small amount of myocardium. The ligature was pulled tight by passing the suture through a polyethylene tubing and clamping it for coronary occlusion. After the LCA was occluded for 30 or 90 min, 30 min of reperfusion was achieved by releasing the ligature. Hydrochloride lidocaine (5%) was administered via intravenous injection and cardiac surface drop when ventricular fibrillation was induced by LCA occlusion or reflow. During the period of surgery and ischemia-reperfusion treatment, the body temperature of the animal was maintained with a heating pad. The chest of the rat was closed before the animal was imaged with FASTSPECT.\nEighteen rats were divided into 2 groups to receive regional myocardial ischemia-reperfusion treatments. Group 1 animals (IR30, n=12 [IR=ischemia-reperfusion]) were treated by ligating the LCA for 30 min and releasing the ligature for 30 min. The LCA in group 2 animals (IR90, n=6) was ligated for 90 min and then released for 30 min.\nRadiopharmaceutical preparation; GLA kits were provided by Molecular Targeting Technologies Inc. The reagent in the vial was a sterile, nonpyrogenic, lyophilized composition of […], GLA, sodium bicarbonate, and hydrochloric acid. A vial of GLA was reconstituted by the addition of 1 mL of ^99mTc as sodium pertechnetate (no <2.59 GBq [no <70 mCi]) in accordance with the manufacturer's instructions. The solution in the vial was allowed to stand at room temperature for 15 min. ^99mTc-GLA radiochemical purity (RCP) was verified by thin-layer liquid chromatography using Gelman instant thin-layer silica gel (ITLC-SG) strips developed in saline and acetone. In the ITLC-SG strip developed by saline, ^99mTc-colloid remained at the origin while ^99mTc-GLA and ^99mTc-pertechnetate migrated near the solvent front. In the strip developed by acetone, ^99mTc-GLA and ^99mTc-colloid remained at the origin while ^99mTc-pertechnetate moved near the solvent front. The RCP of ^99mTc-GLA exceeded 95% for all experimental injections. ^99mTc-GLA was used within 3 h after preparation.\nThe high-resolution stationary SPECT system, FASTSPECT, was built in the Department of Radiology Research Laboratory at The University of Arizona (as described by references 9-11 in Liu et. al, J. Nucl. Med. (2004), vol. 45, pp 1251-1259). In this system, 24 small modular γ cameras are arranged in 2 circular arrays with a cylindric aperture. […] Twenty-four 1-mm diameter pinholes were drilled in the aperture such that a point source in the center of the field of view (FOV) is simultaneously projected to the center of each camera. The dead space between adjacent cameras at the director surface is 7% of the total area. […]"}, "MCF7/D40 tumor xenograft": {"tested_on": "MCF7/D40 tumor xenograft", "assay": "FASTSPECT dynamic imaging and tumor washout kinetics, drug-resistant (Pgp positive) xenograft", "format": "in vivo, SCID mice", "description": "as §1, §2, §3, §4"}},
  "data": [
    {"substance": "^99mTc-glucarate", "values": [
      {"measurement": "time tumors remained detectable after injection", "setting": "MCF7 breast tumors; Example 3", "value": "at least 2 hrs"},
      {"measurement": "time to initial visualization of tumors after injection", "setting": "MCF7 breast tumors; FASTSPECT imaging, all tumors of the glucarate groups, i.v.", "value": "≤ 5", "unit": "min"},
      {"measurement": "time to unequivocal localization/visualization of tumors after injection", "setting": "MCF7 breast tumors; FASTSPECT imaging, i.v.", "value": "10 to 30", "unit": "min"},
      {"measurement": "time radioactive accumulation in the MCF7 tumors remained post-injection", "setting": "MCF7 breast tumors; dynamic images", "value": "at least 120 minutes"},
      {"measurement": "uptake in infarcted hearts relative to normal rats", "setting": "infarcted hearts", "value": 6, "unit": "times"},
      {"measurement": "GLA hot spot size (% LV)", "setting": "[1]; IR30 (n = 12)", "value": "28.4 ± 2.1", "unit": "% LV"},
      {"measurement": "GLA hot spot size (% IAR)", "setting": "[1]; IR30 (n = 12)", "value": "58.4 ± 2.7", "unit": "% IAR"},
      {"measurement": "time after injection the infarct remained well defined", "setting": "[1]; IR30 and IR90 hearts", "value": "at least 120 min"},
      {"measurement": "hot spot/normal ratio in group 1 (IR30) relative to group 2 (IR90), fold lower", "setting": "[1]; IR30 vs IR90", "value": 1.94, "unit": "fold"},
      {"measurement": "GLA hot spot size (% LV)", "setting": "[1]; IR90 (n = 6)", "value": "42.0 ± 2.6", "unit": "% LV"},
      {"measurement": "GLA hot spot size (% IAR)", "setting": "[1]; IR90 (n = 6)", "value": "75.9 ± 2.7", "unit": "% IAR"},
      {"measurement": "final ratio of hot spot to normal myocardial activity", "setting": "[1]; group 1 (IR30)", "value": "4.91±0.71"},
      {"measurement": "averaged ratio of whole-heart hot spot activity to normal myocardial activity", "setting": "[1]; group 1 (IR30)", "value": "4.1±0.3"},
      {"measurement": "final ratio of hot spot to normal myocardial activity", "setting": "[1]; group 2 (IR90)", "value": "9.53±1.76"},
      {"measurement": "averaged ratio of whole-heart hot spot activity to normal myocardial activity", "setting": "[1]; group 2 (IR90)", "value": "7.1±1.1"},
      {"measurement": "half-time value (t1/2) of washout, early phase", "setting": "[1]; hot spot, IR30", "value": "2.4±0.4"},
      {"measurement": "half-time value (t1/2) of washout, late phase", "setting": "[1]; hot spot, IR30", "value": "216.3±23.8"},
      {"measurement": "fractional retention (% peak) by the end of experiment", "setting": "[1]; hot spot, IR30 (30-min LCA occlusion, 30-min reperfusion), 2 h", "value": "31.0±1.3", "unit": "% peak"},
      {"measurement": "half-time value (t1/2) of washout, early phase", "setting": "[1]; hot spot, IR90", "value": "3.8±1.1"},
      {"measurement": "half-time value (t1/2) of washout, late phase", "setting": "[1]; hot spot, IR90", "value": "511.5±74.2"},
      {"measurement": "fractional retention (% peak) by the end of experiment", "setting": "[1]; hot spot, IR90 (90-min LCA occlusion, 30-min reperfusion), 2 h", "value": "42.1±4.0", "unit": "% peak"},
      {"measurement": "half-time value (t1/2) of washout, early phase", "setting": "[1]; normal zone, IR30", "value": "1.6±0.4"},
      {"measurement": "half-time value (t1/2) of washout, late phase", "setting": "[1]; normal zone, IR30", "value": "66.6±5.5"},
      {"measurement": "fractional retention (% peak) by the end of experiment", "setting": "[1]; normal zone, IR30, 2 h", "value": "7.5±1.0", "unit": "% peak"},
      {"measurement": "half-time value (t1/2) of washout, early phase", "setting": "[1]; normal zone, IR90", "value": "2.0±0.2"},
      {"measurement": "half-time value (t1/2) of washout, late phase", "setting": "[1]; normal zone, IR90", "value": "49.1±2.9"},
      {"measurement": "fractional retention (% peak) by the end of experiment", "setting": "[1]; normal zone, IR90, 2 h", "value": "6.4±0.9", "unit": "% peak"},
      {"measurement": "two-hour fractional washout (% peak activity)", "setting": "MCF7/D40 tumor xenograft", "value": "71.9±2.9", "unit": "%"}
    ]}
  ]
}
